One assay relates to cholesterol. To be noted: rats; cited from earlier work.
Assay [1] relates to cholesterol biosynthesis (in HEP-G2 cells). Put plainly: Suppression or inhibition of HMG-CoA reductase in cell cultures of HEP-G2 cells: inhibition of cholesterol biosynthesis from 14C-acetate. Type of assay: cell-based. Conditions: Homo sapiens, HepG2, monolayers, e.g. 1 hour preincubation, 3 hours with sodium 14C-acetate, Table 2. How it is done: 2. Suppression or inhibition of HMG-CoA reductase in cell cultures of HEP-G2 cells
Monolayers of HEP-G2 cells in the lipoprotein-free nutrient medium were preincubated with appropriate concentrations of the test substances for a defined time (for example 1 hour) and, after addition of the labeled precursor, for example sodium ^14 C-acetate, the incubation was continued (for example for 3 hours). An internal standard (^3 H-cholesterol) was added and then a portion of the cells underwent alkaline hydrolysis. The lipids from the hydrolyzed cells were extracted with chloroform/methanol. After addition of carrier cholesterol to this lipid mixture it was subjected to preparative thin-layer chromatography, the cholesterol band was visualized with iodine vapor and then isolated, and the amount of ^14 C-cholesterol formed from the ^14 C-precursor was determined by scintigraphy. Cell protein was determined in an aliquot of the cells so that it is possible to calculate the amount of ^14 C-cholesterol formed per unit time and per mg of cell protein. The inhibitory effect of the particular test product on the cholesterol biosynthesis by HEP-G2 cell cultures was obtained by comparing this figure with the amount of ^14 C-cholesterol formed per mg of cell protein and unit time in a culture treated in the same way but free of test substance.
Examination of substances for inhibition of cholesterol biosynthesis
in confluent cell cultures (monolayers) of HEP-G2 cells
The method described above was used to measure, for example, the following figures for the inhibition of cholesterol biosynthesis (in HEP-G2 cells) by the compounds according to the invention (the IC50 /mol/liter is that concentration of the compound which brings about 50% inhibition of cholesterol biosynthesis) (Tab. 2).

A further assay deals with T1, HMG-CoA reductase (Rattus norvegicus, UniProt P51639).
T1 construct: solubilized enzyme preparations from liver microsomes from rats; from tissue; host or cells: liver microsomes of cholestyramine-induced rats
T1 sequence (P51639 1-887): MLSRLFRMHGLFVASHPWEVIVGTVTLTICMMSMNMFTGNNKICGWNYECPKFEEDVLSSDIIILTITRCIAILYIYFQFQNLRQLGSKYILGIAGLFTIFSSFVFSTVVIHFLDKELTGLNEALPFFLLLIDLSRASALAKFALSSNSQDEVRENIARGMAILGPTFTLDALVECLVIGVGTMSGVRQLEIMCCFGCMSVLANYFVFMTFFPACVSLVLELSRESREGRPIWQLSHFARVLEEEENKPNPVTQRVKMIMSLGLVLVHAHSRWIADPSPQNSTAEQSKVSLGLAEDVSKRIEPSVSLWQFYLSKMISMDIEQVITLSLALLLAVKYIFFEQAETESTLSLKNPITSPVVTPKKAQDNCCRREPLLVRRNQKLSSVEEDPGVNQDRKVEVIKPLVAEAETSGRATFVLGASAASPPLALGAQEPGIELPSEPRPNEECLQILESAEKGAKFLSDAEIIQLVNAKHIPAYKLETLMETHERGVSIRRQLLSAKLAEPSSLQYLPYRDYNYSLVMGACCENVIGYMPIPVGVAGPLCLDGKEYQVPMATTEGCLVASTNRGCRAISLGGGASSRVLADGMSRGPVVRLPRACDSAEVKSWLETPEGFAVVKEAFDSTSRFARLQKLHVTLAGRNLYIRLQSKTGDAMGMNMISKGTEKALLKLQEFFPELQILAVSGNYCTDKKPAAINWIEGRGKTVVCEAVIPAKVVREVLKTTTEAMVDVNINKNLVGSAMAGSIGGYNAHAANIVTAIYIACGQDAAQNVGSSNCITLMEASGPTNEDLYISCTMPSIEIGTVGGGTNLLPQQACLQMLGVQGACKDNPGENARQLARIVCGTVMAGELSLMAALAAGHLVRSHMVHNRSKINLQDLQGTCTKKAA
Description: HMG CoA reductase activity in enzyme preparations (solubilized enzyme preparations from liver microsomes of cholestyramine-induced rats, 14C-HMG-CoA substrate). To be noted: solubilized rat liver microsomal enzyme; mean of 3 parallel samples; Table 1; read-out: IC50 for inhibition of HMG-CoA reductase. The assay is classed as biochemical. The procedure:
1. HMG CoA reductase activity in enzyme preparations
The HMG-CoA reductase activity was measured on solubilized enzyme preparations from liver microsomes from rats which, after a changeover in the day/night rhythm, had been induced with cholestyramine (®Cuemid).
The substrate used was (S,R) ^14 C-HMG-CoA, and the concentration of NADPH was maintained constant during the incubation by a regenerating system. ^14 C-Mevalonate was separated from the substrate and other products (e.g. ^14 C-HMG) by column elution, with the elution profile of each individual sample being determined.
Permanent inclusion of ^3 H-mevalonate was dispensed with because the determination was for relative data on the inhibitory effect. In each test series the enzyme-free control, the enzyme-containing normal mixture (=100%) and those with added product, final concentration 10^-5 to 10^-9 M, were treated together. Each individual value was formed as the mean of 3 parallel samples. The significance of the differences between means for product-free and product-containing samples was assessed using the t test.
The method described above was used to measure, for example, the following figures for the inhibition of HMG-CoA reductase by the compounds according to the invention [IC50 /mol/liter means the molar concentration of the compound per liter necessary for 50% inhibition]: […]
For orientation: Liver microsomes are vesicles of endoplasmic reticulum, rich in cytochrome P450 enzymes.

In the case of `CC(O)(CC(=O)O)CC(=O)O` [3-Hydroxy-3-methylglutaric acid], in the assay with cholesterol, the cholesterol-lowering action result was “significant cholesterol-lowering action”.

As for `CC(C)c1nc(-c2ccc(F)cc2)nc(-c2ccc(F)cc2)c1/C=C(\F)[C@@H]1C[C@@H](O)CC(=O)O1` [10 a], the IC50 is 19 nM in assay [1] and 2.9 nM at HMG-CoA reductase. In the case of `CC(C)c1nc(-c2ccccc2)cc(-c2ccc(F)cc2)c1/C=C(\F)[C@@H]1C[C@@H](O)CC(=O)O1` [10 b], the IC50 in assay [1] worked out at 4.6 nM; on HMG-CoA reductase it was 9 nM. For `CC(C)c1nc(-c2ccc(F)cc2)c(/C=C(\F)[C@@H]2C[C@@H](O)CC(=O)O2)c(C(C)C)n1` [10 g], the half-maximal inhibitory concentration (IC50) came out at 2.5 nM in assay [1] and 1.8 nM on HMG-CoA reductase. As for `CC(C)c1nc(-c2ccc(F)cc2)nc(-c2ccc(F)cc2)c1C=C(F)C(O)CC(O)CC(=O)O` (stereo not drawn) [11 a], in assay [1], 18 nM corresponded to half-maximal inhibition (IC50). As for `CC(C)c1nc(-c2ccccc2)cc(-c2ccc(F)cc2)c1/C=C(\F)[C@@H](O)C[C@@H](O)CC(=O)O` [11 b], in assay [1], the IC50 stood at 20 nM.

As a reminder, the IC50 is the concentration that gives 50% inhibition.

The values above are taken from patent US5204351A, “6-fluoro-3,5-dihydroxy carboxylic acids and derivatives thereof” (Hoechst Aktiengesellschaft, priority 1988, dated 1993).
